“And” between values parts separate entries of the source, which are not always exact repeats. Equal values may be shown once. Read-outs that look alike come from different tables or passages of the source. Marks after values point to notes of the source that are not given here.
Columns and labels:
CD34+ cells = assay: Blood cell stimulation: CD34+ progenitor suspension culture, lineage marker ELISA; assay type: cell-based, human; conditions: for neutrophils, Percent difference (relative to control): CD15; for red blood cells, Percent difference (relative to control): glycophorin A
anti-Pn14 antibodies = test system: anti-Pn14 antibodies; design: species or system BALB/c female mice; conditions: mouse, in vivo
[1] = test system: Hybridoma cells (ATCC #CRL-8014, OKT-8); assay: Production of monoclonal antibodies from hybridomas (sandwich ELISA); assay type: cell-based; conditions: 200 pg/ml
[2] = test system: CHO cells containing a cloned gene for tissue plasminogen activator (tPA); assay: Stimulation of tPA production from CHO cells (IMUBIND total tPA ELISA); assay type: cell-based; conditions: for Culture Cell Density / Supernatant Concentration (tPA) / Supernatant Concentration relative to control / tPA per cell / tPA per cell relative to control / ELISA Optical Density: 1 pg/ml; for Culture Cell Density: cell numbers per milliliter, trypan-blue, hemacytometer; for Supernatant Concentration (tPA): from standard curve; for ELISA Optical Density: supernatant at end of log phase
[3] = test system: delayed type hypersensitivity (DTH); assay type: in vivo, mice
[4] = Study 1: 1 ng/ml compound, 2000 cells per well, 10 days, CD14
[5] = Study 1: 1 ng/ml compound, 2000 cells per well, 10 days
[6] = Study 2: 1 ug/ml, 1700 cells per well

In the case of `O=C(CCNC(=O)OCc1ccccc1)NCCOP(=O)(O)O` [Taurox-BOP, N-carboxybenzoxy-β-alanyl-ethanolamine phosphate], the “monocytes, Percent difference (relative to control)” value (CD34+ cells; [4]) is reported as 18%, the “neutrophils, Percent difference (relative to control)” value (CD34+ cells; [5]) is reported as 21% and the “red blood cells, Percent difference (relative to control)” value (CD34+ cells; [5]) is reported as 0%. For the same compound, the “CD34 cells, Percent difference (relative to control)” value (CD34+ cells; [6]) was 33%, the “RBC, Percent difference (relative to control)” value (CD34+ cells; [6]) was 55% and the “monocytes, Percent difference (relative to control)” value (CD34+ cells; [6]) was 9%. The “Mean Change in O.D. from pretest, Day 4 after injection with antigen” value (anti-Pn14 antibodies) was 0, the “Mean Change in O.D. from pretest, Day 14 after injection with antigen” value (anti-Pn14 antibodies) was 366 and the “Mean Change in O.D. from pretest, Day 14 after injection with antigen” value (anti-Pn14 antibodies; ip) was 877 and 515.

In the case of `NCCC(=O)NCCS(=O)(=O)O` [Taurox-S, β-alanyl-taurine], the “monocytes, Percent difference (relative to control)” value (CD34+ cells; [4]) is reported as 47%, the “neutrophils, Percent difference (relative to control)” value (CD34+ cells; [5]) is reported as 55% and the “red blood cells, Percent difference (relative to control)” value (CD34+ cells; [5]) is reported as 50%. For the same compound, the “Mean Change in O.D. from pre-boost, 10 days after boost with UNCONJUGATED polysaccharide” value (shortened to “Mean Change in O.D. from pre-boost”) (anti-Pn14 antibodies) was 204, the “Mean Change in O.D. from pretest, Day 4 after injection with antigen” value (anti-Pn14 antibodies) was 2.9 and the “Mean Change in O.D. from pretest, Day 14 after injection with antigen” value (anti-Pn14 antibodies) was 697. The “Mean Change in O.D. from pretest, Day 14 after injection with antigen” value (anti-Pn14 antibodies; ip) was 681 and 671.

`O=C(CCNC(=O)OCc1ccccc1)NCCS(=O)(=O)O` [Taurox-SB, N-carboxybenzoxy-β-alanyl-taurine] was tested, and the “Increase of 1 gG, μg/ml over 0-control” value [1] was 316%, the “Increase of IgG, pg/cell over 0-control” value [1] was 93% and the “IgG, pg/cell” value ([1]; protein-free media) was 80.6 pg/cell. For the same compound, the “1 gG” value ([1]; protein-free media, Mab in culture aliquots) was 50 µg/mL, the “Culture Cell Density” value ([2]; listed as #1) was 4.0 × 10^5 and the “Culture Cell Density” value ([2]; listed as #2) was 4.8 × 10^5. The “Culture Cell Density” value ([2]; listed as #3) was 5.2 × 10^5, the “Supernatant Concentration (tPA)” value ([2]; listed as #1) was 1,492.8 nanograms/ml and the “Supernatant Concentration (tPA)” value ([2]; listed as #2) was 1,389.4 nanograms/ml. The “Supernatant Concentration (tPA)” value ([2]; listed as #3) was 2,113.0 nanograms/ml, the “Supernatant Concentration relative to control” value ([2]; listed as #1) was “[3.5 × control]” and the tPA per cell ([2]; listed as #1) was 3.73 Picograrns. For the same compound, the “tPA per cell relative to control” value ([2]; listed as #1) was “[1.9 × control]”, the “Supernatant Concentration relative to control” value ([2]; listed as #2) was “[3.3 × control]” and the tPA per cell ([2]; listed as #2) was 2.89 Picograrns. For the same compound, the “Supernatant Concentration relative to control” value ([2]; listed as #3) was “[5.0 × control]”, the tPA per cell ([2]; listed as #3) was 4.06 Picograrns and the “tPA per cell relative to control” value ([2]; listed as #3) was “[2.1 × control]”. For the same compound, the “ELISA Optical Density” value ([2]; listed as #1) was 0.332, the “ELISA Optical Density” value ([2]; listed as #2) was 0.317 and the “ELISA Optical Density” value ([2]; listed as #3) was 0.422. For the same compound, the “alteration of per-cell production of tPA” value ([2]; Table 2) was “about 2 fold”, the “moderate responders compared with saline injected group” value ([3]; 24 hrs) was “more moderate responders than the saline injected group” and the “Percent of Animals with Major DTH at 24 hrs” value ([3]; mouse, in vivo) was 50* Percent. The “Percent of Animals with Major DTH at 48 hrs.” value ([3]; mouse, in vivo) was 50%, the “Percent of Animals with Major DTH at either 24 or 48 hrs.” value ([3]; mouse, in vivo) was 60% and the “Percent of Animals with Moderate DTH at 24 hrs” value ([3]; mouse, in vivo) was 70%. For the same compound, the “moderate response rate at 24 hrs” value ([3]; mouse, in vivo) was “eight of ten”, the “total treated animals with major immune response at 24 hours” value ([3]; mouse, in vivo) was 14 animals and the “treated animals with major response at either 24 or 48 hours post challenge” value ([3]; mouse, in vivo) was 21 animals. The “Percent of Animals with Major DTH at 24 hrs” value ([3]; mouse, in vivo, iv) was 20% and 10%, the “Percent of Animals with Major DTH at 48 hrs.” value ([3]; mouse, in vivo, iv) was 20% and 10% and the “Percent of Animals with Moderate DTH at 24 hrs” value ([3]; mouse, in vivo, iv) was 70% and 60% and 50% and 80* Percent and 40%. For the same compound, the “monocytes, Percent difference (relative to control)” value (CD34+ cells; [4]) was 15%, the “neutrophils, Percent difference (relative to control)” value (CD34+ cells; [5]) was 0% and the “red blood cells, Percent difference (relative to control)” value (CD34+ cells; [5]) was 0%. The “Mean Change in O.D. from pre-boost” value (anti-Pn14 antibodies) was 139, the “Mean Change in O.D. from pretest, Day 4 after injection with antigen” value (anti-Pn14 antibodies) was 1.1 and the “Mean Change in O.D. from pretest, Day 14 after injection with antigen” value (anti-Pn14 antibodies) was 697. For the same compound, the “Mean Change in O.D. from pretest, Day 4 after injection with antigen” value (anti-Pn14 antibodies; ip) was 6.2 and 3.9 and the “Mean Change in O.D. from pretest, Day 14 after injection with antigen” value (anti-Pn14 antibodies; ip) was 705 and 483.

With “N-carboxybenzoxy-β-alanyl aminoethylphosphonic acid [Taurox-BP]” the “monocytes, Percent difference (relative to control)” value (CD34+ cells; [4]) was 18%, the “neutrophils, Percent difference (relative to control)” value (CD34+ cells; [5]) was 14% and the “red blood cells, Percent difference (relative to control)” value (CD34+ cells; [5]) was 1%. For the same compound, the “CD34 cells, Percent difference (relative to control)” value (CD34+ cells; [6]) was 0%, the “RBC, Percent difference (relative to control)” value (CD34+ cells; [6]) was 4% and the “monocytes, Percent difference (relative to control)” value (CD34+ cells; [6]) was 2%. For the same compound, the “Mean Change in O.D. from pre-boost” value (anti-Pn14 antibodies) was 187, the “Mean Change in O.D. from pretest, Day 4 after injection with antigen” value (anti-Pn14 antibodies) was 3.3 and the “Mean Change in O.D. from pretest, Day 14 after injection with antigen” value (anti-Pn14 antibodies) was 924.

— patent publication US6498150B2, “Low molecular weight cell, bone marrow and immune stimulants” (priority 1995, dated 2002)
